Measured values as given in ChEMBL document CHEMBL4325829, “Design and Synthesis of Tubulin and Histone Deacetylase Inhibitor Based on iso-Combretastatin A-4” (J Med Chem, 2018).
Active and inactive are the calls of the source. No cut-off for these calls is given here.

Tests used:
[1] = molecular target: T1, Protein deacetylase HDAC6 (Homo sapiens, UniProt Q9UBN7)
T1 sequence (Q9UBN7 whole entry): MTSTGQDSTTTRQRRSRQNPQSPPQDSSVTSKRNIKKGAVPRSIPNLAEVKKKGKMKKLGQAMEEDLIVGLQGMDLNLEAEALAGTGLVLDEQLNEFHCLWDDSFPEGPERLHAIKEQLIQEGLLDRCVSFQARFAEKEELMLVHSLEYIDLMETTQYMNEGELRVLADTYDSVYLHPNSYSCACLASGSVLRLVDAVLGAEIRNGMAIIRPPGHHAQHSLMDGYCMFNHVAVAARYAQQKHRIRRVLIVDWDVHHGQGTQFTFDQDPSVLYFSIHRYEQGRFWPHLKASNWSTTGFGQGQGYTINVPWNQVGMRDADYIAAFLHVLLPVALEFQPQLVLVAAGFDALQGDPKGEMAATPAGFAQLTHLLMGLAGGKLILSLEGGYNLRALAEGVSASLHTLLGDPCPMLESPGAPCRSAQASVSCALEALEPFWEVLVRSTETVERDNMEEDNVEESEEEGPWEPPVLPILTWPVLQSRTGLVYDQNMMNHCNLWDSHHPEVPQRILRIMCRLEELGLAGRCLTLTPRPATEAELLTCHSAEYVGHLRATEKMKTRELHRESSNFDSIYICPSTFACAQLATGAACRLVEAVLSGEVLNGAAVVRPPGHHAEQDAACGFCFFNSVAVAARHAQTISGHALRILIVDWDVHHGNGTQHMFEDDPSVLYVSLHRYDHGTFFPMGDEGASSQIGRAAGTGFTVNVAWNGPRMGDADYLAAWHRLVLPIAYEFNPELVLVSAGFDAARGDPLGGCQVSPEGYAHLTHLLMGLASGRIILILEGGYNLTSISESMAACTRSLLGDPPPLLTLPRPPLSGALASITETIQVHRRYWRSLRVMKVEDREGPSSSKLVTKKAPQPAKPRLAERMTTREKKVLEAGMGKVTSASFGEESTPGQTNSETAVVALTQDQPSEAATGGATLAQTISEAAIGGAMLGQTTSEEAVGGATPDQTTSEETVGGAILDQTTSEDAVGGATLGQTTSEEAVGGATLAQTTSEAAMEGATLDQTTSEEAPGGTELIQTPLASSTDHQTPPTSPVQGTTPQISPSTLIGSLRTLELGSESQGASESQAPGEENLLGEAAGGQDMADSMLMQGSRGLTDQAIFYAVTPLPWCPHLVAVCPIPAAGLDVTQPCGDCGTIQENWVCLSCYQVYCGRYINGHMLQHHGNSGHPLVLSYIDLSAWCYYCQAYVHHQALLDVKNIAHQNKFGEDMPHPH
Description: Inhibition of human recombinant HDAC6 after 30 mins using fluorogenic substrate by fluorimetric assay

[2] = molecular target: T2, Protein deacetylase HDAC6 (Homo sapiens) (UniProt Q9UBN7); experiment: Inhibition of human recombinant HDAC6 at 10^-5 M after 30 mins using fluorogenic substrate by fluorimetric assay relative to control
T2 sequence (whole entry): T1 sequence (Q9UBN7 whole entry)

[3] = molecular target: Histone deacetylase 4 (Homo sapiens) (UniProt P56524); experiment: Inhibition of human recombinant HDAC4 at 10^-5 M after 30 mins using fluorogenic substrate by fluorimetric assay relative to control
MIA PaCa-2 = experiment: Antiproliferative activity against human MIAPaCa2 cells after 72 hrs by MTS assay; format: functional; settings: Homo sapiens, MIA PaCa-2, 72 h
[4] = Inhibition of sheep brain tubulin polymerization assessed as reduction in rate of microtubule assembly by DAPI-fluorescence based assay; parameters: species or system Ovis aries
Histone deacetylase 8 = molecular target: T3, Histone deacetylase 8 (Homo sapiens, UniProt Q9BY41); experiment: Inhibition of human recombinant HDAC8 after 30 mins using fluorogenic substrate by fluorimetric assay
T3 sequence (Q9BY41 whole entry): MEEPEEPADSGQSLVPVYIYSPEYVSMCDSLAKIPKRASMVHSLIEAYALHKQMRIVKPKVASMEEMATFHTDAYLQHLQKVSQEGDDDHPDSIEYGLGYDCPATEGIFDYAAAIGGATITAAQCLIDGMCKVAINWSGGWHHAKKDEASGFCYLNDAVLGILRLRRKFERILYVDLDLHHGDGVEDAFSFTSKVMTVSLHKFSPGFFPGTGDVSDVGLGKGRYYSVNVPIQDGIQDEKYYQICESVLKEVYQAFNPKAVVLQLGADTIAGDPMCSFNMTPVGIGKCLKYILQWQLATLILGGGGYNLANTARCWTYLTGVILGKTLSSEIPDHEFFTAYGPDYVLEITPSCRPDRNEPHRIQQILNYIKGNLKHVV

HT-29 [5] = experiment: Antiproliferative activity against human HT-29 cells in presence of TSA after 72 hrs by MTS assay relative to control; format: functional, cell-based; settings: HT-29, 72 h
[6] = molecular target: Histone deacetylase 11 (Homo sapiens) (UniProt Q96DB2); experiment: Inhibition of human recombinant HDAC11 at 10^-5 M after 45 mins using fluorogenic substrate by fluorimetric assay relative to control
[7] = Lipophilicity, log P of the compound; format: physicochemical; settings: octanol/water
[8] = molecular target: Histone deacetylase 1 (Homo sapiens) (UniProt Q13547); experiment: Inhibition of human recombinant HDAC1 at 10^-5 M after 15 mins using fluorogenic substrate by fluorimetric assay relative to control
Tubulin (Homo sapiens) [9] = molecular target: T4, Tubulin (Homo sapiens) (UniProt P68371+Q9H4B7+P0DPH7+P68366+Q13509+Q71U36+P04350+Q3ZCM7+P07437+P68363+Q9BQE3+Q6PEY2+Q13885+Q9BVA1+Q9BUF5); experiment: Inhibition of tubulin polymerization in human K562 cells assessed as disruption of spindle formation at 1 nM after 24 hrs by DAPI-staining based inverted microscopy; format: cell-based
[10] = molecular target: T2, Protein deacetylase HDAC6 (Homo sapiens); experiment: Inhibition of HDAC6 in human HT-29 cells assessed as acetylated alpha-tubulin levels at 25 uM after 24 hrs by Western blot analysis relative to control; format: cell-based
[11] = molecular target: T5, Histone deacetylase (Homo sapiens) (UniProt Q13547+O15379+Q9UBN7+Q92769+Q9UQL6+Q8WUI4+Q9BY41+Q96DB2+P56524+Q9UKV0+Q969S8); experiment: Inhibition of HDAC in human HT-29 cells assessed as phosphorylated gamma-H2AX levels at 80 nM after 3 days by Western blot analysis relative to control; format: cell-based
Tubulin (Homo sapiens) [12] = molecular target: T4, Tubulin (Homo sapiens); experiment: Inhibition of tubulin polymerization in human K562 cells assessed as multinucleation at 10 nM after 24 hrs by DAPI-staining based inverted microscopy; format: cell-based
U-87 MG = experiment: Potency index, ratio of IC50 for isoCA4 to IC50 for test compound for antiproliferative activity against human U87 cells after 72 hrs by MTS assay; format: functional, U-87MG ATCC
HT-29 [13] = experiment: Potency index, ratio of IC50 for TSA to IC50 for test compound for antiproliferative activity against human HT-29 cells after 72 hrs by MTS assay; format: functional
K-562R = experiment: Potency index, ratio of IC50 for isoCA4 to IC50 for test compound for antiproliferative activity against human K562R cells after 72 hrs by MTS assay; format: functional
[14] = molecular target: T5, Histone deacetylase (Homo sapiens); experiment: Inhibition of HDAC in human HT-29 cells assessed as phosphorylated gamma-H2AX levels at 40 nM after 3 days by Western blot analysis relative to control; format: cell-based

Histone deacetylase 11 (Homo sapiens), sequence (Q96DB2 whole entry): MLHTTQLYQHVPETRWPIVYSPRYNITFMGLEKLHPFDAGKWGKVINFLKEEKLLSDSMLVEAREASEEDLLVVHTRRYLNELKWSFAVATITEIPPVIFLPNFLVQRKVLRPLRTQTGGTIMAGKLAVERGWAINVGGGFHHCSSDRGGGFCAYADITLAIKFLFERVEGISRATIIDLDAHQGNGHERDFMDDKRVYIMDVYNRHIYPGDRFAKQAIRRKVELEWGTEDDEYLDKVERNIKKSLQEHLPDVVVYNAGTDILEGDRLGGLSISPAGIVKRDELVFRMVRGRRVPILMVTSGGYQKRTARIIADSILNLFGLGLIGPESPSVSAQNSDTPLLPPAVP
Histone deacetylase 1 (Homo sapiens), sequence (Q13547 whole entry): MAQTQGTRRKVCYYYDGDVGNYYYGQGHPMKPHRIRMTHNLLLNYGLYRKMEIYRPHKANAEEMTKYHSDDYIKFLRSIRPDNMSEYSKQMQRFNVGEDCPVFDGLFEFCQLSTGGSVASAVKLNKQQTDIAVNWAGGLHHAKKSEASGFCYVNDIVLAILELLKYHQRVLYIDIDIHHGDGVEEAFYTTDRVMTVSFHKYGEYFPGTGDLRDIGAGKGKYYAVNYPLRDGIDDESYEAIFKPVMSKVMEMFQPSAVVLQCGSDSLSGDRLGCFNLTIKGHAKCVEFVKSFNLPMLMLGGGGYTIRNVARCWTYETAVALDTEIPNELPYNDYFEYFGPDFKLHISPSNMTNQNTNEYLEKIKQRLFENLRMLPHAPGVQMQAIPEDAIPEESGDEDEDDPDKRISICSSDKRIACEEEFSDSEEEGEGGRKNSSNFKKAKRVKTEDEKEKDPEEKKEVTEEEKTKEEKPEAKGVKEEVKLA
Histone deacetylase 4 (Homo sapiens), sequence (P56524 whole entry): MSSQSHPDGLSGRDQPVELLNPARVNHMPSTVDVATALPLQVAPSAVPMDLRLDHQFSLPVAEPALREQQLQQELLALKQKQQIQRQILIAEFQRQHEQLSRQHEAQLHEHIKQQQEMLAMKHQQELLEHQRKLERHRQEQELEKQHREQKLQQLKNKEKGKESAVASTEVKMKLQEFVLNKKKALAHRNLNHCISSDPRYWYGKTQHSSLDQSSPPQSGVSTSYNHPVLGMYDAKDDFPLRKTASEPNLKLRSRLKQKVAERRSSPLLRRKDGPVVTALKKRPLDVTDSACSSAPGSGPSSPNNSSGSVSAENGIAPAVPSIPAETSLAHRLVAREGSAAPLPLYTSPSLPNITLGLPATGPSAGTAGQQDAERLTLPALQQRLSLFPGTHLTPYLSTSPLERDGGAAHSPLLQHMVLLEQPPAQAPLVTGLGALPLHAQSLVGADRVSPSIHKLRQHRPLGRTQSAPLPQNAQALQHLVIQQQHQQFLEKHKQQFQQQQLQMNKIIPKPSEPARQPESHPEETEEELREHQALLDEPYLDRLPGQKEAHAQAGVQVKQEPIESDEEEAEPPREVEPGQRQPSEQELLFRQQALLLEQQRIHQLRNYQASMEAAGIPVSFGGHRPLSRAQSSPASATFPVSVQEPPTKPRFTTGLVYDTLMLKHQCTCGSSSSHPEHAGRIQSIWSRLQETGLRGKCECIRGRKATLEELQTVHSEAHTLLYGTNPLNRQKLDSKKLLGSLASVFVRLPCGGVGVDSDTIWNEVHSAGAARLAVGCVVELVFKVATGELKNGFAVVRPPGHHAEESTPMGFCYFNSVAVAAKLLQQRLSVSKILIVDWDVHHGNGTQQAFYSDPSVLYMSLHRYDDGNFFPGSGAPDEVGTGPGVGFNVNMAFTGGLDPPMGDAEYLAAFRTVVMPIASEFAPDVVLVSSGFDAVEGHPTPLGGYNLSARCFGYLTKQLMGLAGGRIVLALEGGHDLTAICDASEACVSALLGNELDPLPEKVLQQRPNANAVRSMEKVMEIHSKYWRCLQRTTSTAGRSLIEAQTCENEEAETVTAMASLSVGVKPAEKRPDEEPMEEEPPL

Activity (Tubulin (Homo sapiens) [9])	fold change (FC) [10]	fold change (FC) [11]	Activity (Tubulin (Homo sapiens) [12])	logP ([7]; read-out: logP)	fold change (FC) [14]	Compound	IC50 [1]	inhibition [2]	inhibition [3]	GI50 (MIA PaCa-2)	IC50 [4]	IC50 (Histone deacetylase 8)	IC50 (HT-29 [5])	inhibition [6]	logP [7]	inhibition [8]	Ratio IC50 (U-87 MG)	Ratio IC50 (HT-29 [13])	Ratio IC50 (K-562R)
						C=C(c1ccc(OC)c(O)c1)c1cc(OC)c(OC)c(OC)c1	Not Active	inactive	inactive	10 nM	2000 nM	Not Active	3.8 nM	inactive	2.16	inactive			
Active	0.5	14.2	Active	2.93	3.2	C=C(c1ccc(OC)c(/C=C/C(=O)NO)c1)c1cc(OC)c(OC)c(OC)c1		< 50%	< 50%	5.1 nM	1600 nM			60%		< 50%	5	17	2
